Measured values as given in patent US6949575B2, “Method of inhibiting amyloid protein aggregation and imaging amyloid deposits using aminoindane derivatives” (Pfizer Inc., priority 2000, dated 2005).
Several values for one entry are separate records, joined by “and”; a condition that tells them apart may be missing. Identical values can stand only once.

Key:
[1] = target: T1, Soluble Aβ(1-40) peptide (Homo sapiens, UniProt P05067); assay: BASSR (Beta-Amyloid Self-Seeding Radioassay): inhibitors of self-seeded amyloid fibril growth; assay type: biochemical; conditions: 30 μM soluble Aβ(1-40) + 125I-labeled Aβ(1-40), 37° C., 3 to 5 hours, filtration; replicate values
T1 construct: Soluble Aβ(1-40) peptide; purchased Bachem, Torrance, Calif
T1 sequence (P05067 672-711 limits assumed): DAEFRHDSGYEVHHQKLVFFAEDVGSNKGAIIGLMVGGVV
Description: BASSR (Beta-Amyloid Self-Seeding Radioassay)
An assay for inhibitors of self-seeded amyloid fibril growth
Assay Buffer—[…] sodium phosphate, pH 7.5, 100 mM NaCl, 0.02% NaN3, 1 M urea (filter and store at 4° C.)
Soluble Aβ(1-40) peptide (Bachem, Torrance, Calif.)—2.2 mg/mL in deionized H2O (stored in aliquots at −20° C., keep on ice when thawed) will self-seed after 1 week storage. Typically, the solution should be stored until no lag phase is seen in the assay.
^125I-labeled Aβ(1-40)—150 to 350K cpm/μL in 100% acetonitrile—0.1% trifluoroacetic acid (TFA)—1% β-mercaptoethanol (aliquots stored at −20° C.). ^125I-labeled Aβ(1-40) can be made in accordance with the procedure set forth by H. Levine, III in Neurobiol. Aging, 16:755 (1995), which is hereby incorporated by reference, or this reagent may be purchased from Amersham, Arlington Heights, Ill. Final assay conditions: 30 μM soluble Aβ(1-40) in deionized water in assay buffer+20 to 50K cpm ^125I-labeled Aβ(1-40) per assay. Compound to be tested is dissolved in dimethylsulfoxide (DMSO), typically 5 to 50 mM stock, such that the final concentration of DMSO is <1% v/v in the assay. Assay: Reaction mixture for 50 assays (on ice) is comprised of 0.1 to 0.2 μL of ^125I-labeled A^125I-labeled Aβ(1-40)+1 μL of soluble Aβ(1-40)+13.5 μL assay buffer per assay. The following are the amounts of the components of the reaction mixture sufficient for 50 assay wells.
• 1) Prepare reaction mixture above by mixing components and storing on ice. • 2) Pipet 14.5 μL of reaction mixture into each of 50 wells on a polypropylene U-bottom 96-well microtiter plate on ice (Costar 3794). • 3) Add 1.7 μL of diluted compound to be tested to each well in a column of eight, including solvent control. Serial 3-fold dilutions from 1 mM (100 μM final) in assay buffer-urea=7 dilutions+zero. Each 96-well plate can therefore accommodate 11 samples+1 Congo Red control (0.039-5 μM final in 2-fold steps). • 4) Seal the plate with aluminum film (Beckman 538619) and incubate for 10 minutes on ice. • 5) Raise the temperature to 37° C. and incubate for 3 to 5 hours (depending on the lot of the peptide). • 6) Remove the aluminum film and add 200 μL/well of ice cold assay buffer with urea, collecting the radiolabeled fibrils by vacuum filtration through 0.2-μm pore size GVWP filters in 96-well plates (Millipore MAGV N22, Bedford, Mass.). Determine the radioactivity of the filters using standard methods well-known to those skilled in the art. BASST (Beta-Amyloid Self-Seeding, Thioflavin T)

[2] = target: T2, Aβ (1-42) (Homo sapiens, UniProt P05067); assay: Batym Assay: Aβ (1-42) aggregation, Thioflavin T fluorescence; assay type: biochemical; conditions: Aβ1-42 final 100 μM, 37° C., 1 day, read-out: BAYTM IC50
T2 construct: Required Aβ (1-42) (California Peptide); purchased California Peptide
T2 sequence (P05067 672-713 limits assumed): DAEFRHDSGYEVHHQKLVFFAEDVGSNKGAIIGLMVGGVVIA
Description: Required Aβ (1-42) (California Peptide) was dried from its HFIP stock solution. The Aβ (1-42) was dissolved in DMSO and then mixed with phosphate buffered saline (PBS) (pH 7.4). The mixed Aβ (1-42) solution was filtered with a Omnipore membrane 0.2-μm syringe filter (Millipore, Bedford, Mass.). The compound to be tested in DMSO (50× concentrate) was put into each well (0.5 μL/well) of a 96-well plate. The Aβ (1-42) solution was added into each well (24.5 μL/well). The plate was centrifuged at 1,000 g for 5 minutes and incubated at 37° C. for 1 day (Aβ1-42; final concentration 100 μM).
After incubation, Thioflavin T (ThT) (30 μM) solution in glycine-NaOH buffer (pH 8.5, 50 mM) was added into each well (250 μL/well), fluorescence was measured (ex=440/20 nm; em=485/20 nm) using a fluorescence plate reader. The inhibitory activity was calculated as the reduction of fluorescence with the following formula: Inhibition (%)={(F(Aβ)−F(Aβ+compound)}/{F(Aβ)−[…]}×100
The IC50s were calculated by a curve fitting program using the following equation. The data were obtained from two different experiments in triplicate. Inhibition (x)=100−100/{1+(x/IC50)^n}. • x=concentration of tested compound (M). • IC50=(M). • n=Hill coefficient.

| SMILES | IC50 [1] | IC50 [2] |
| --- | --- | --- |
| O=C(O)c1cc([N+](=O)[O-])ccc1Nc1ccc2c(c1)CC(NCc1ccc(F)cc1)C2 (stereo not drawn) [Example 10, 2-[2-(4-Fluorobenzylamino)-indan-5-ylamino]-5-nitro-benzoic acid] | > 100 µM (2×) and 90 µM and 10 µM | 53.8 µM |
| CCCCCNC1Cc2ccc(Nc3ccc([N+](=O)[O-])cc3C(=O)O)cc2C1 (stereo not drawn) [Example 12, 2-[2-(n-Pentylamino)-indan-5-ylamino]-5-nitro-benzoic acid] | > 100 µM | > 100 µM |
| COc1ccc(Nc2ccc3c(c2)CC(NCc2ccc(Cl)c(Cl)c2)C3)c(C(=O)O)c1 (stereo not drawn) [Example 5, 2-[2-(3,4-Dichlorobenzylamino)-indan-5-ylamino]-5-methoxy-benzoic acid] | > 100 µM (2×) and 30 µM | > 100 µM |

Other lines, results leading:

| IC50 [1] | IC50 [2] | SMILES |
| --- | --- | --- |
| > 100 µM | > 100 µM | CCCCCN(CCCCC)C1Cc2ccc(Nc3ccc([N+](=O)[O-])cc3C(=O)O)cc2C1 (stereo not drawn) [Example 1, 2-[(2-N,N-di-n-pentylamino)-indan-5-yl]amino-5-nitro-benzoic Acid] |
| > 100 µM | > 100 µM | CCCCCN(CCCCC)C1Cc2ccc(Nc3ccc(C)cc3C(=O)O)cc2C1 (stereo not drawn) [Example 6, 2-(2-Dipentylamino-indan-5-yl-amino)-5-methyl-benzoic acid] |
| > 100 µM (3×) and 15 µM | > 100 µM | CCCCCN(CCCCC)C1Cc2ccc(Nc3ccc(C(=O)O)cc3[N+](=O)[O-])cc2C1 (stereo not drawn) [Example 7, 4-(2-Dipentylamino-indan-5-yl-amino)-3-nitro-benzoic Acid] |
